Several values for one entry are separate records, joined by “and”; a condition that tells them apart may be missing. Equal values may be shown once.

Data on 2 molecules can be found in US20090280098A1 (priority 2006, published 2009).

Test [1] concerns enzymatic activity for fatty acid degradation. Conditions: cellobiose-added feedstuff; cited from earlier work.
Test [2] relates to enzymatic activity for fatty acid synthesis. Particulars: cellobiose-added feedstuff; cited from earlier work.
The conditions of test [3]: cellobiose-added high sucrose food for 4 weeks; versus control rats; cited from earlier work.
For the next test, the system named is cellooligosaccharide. The test is classed as cell-based.

Regarding `O=C[C@H](O)[C@@H](O)[C@H](O[C@@H]1O[C@H](CO)[C@@H](O)[C@H](O)[C@H]1O)[C@H](O)CO` [cellobiose], the “enzymatic activity for fatty acid degradation” value in test [1] was “increased”. In test [2], the “enzymatic activity for fatty acid synthesis” value is on record as “inhibited”. In addition, in test [3], the body fat ratio result is recorded as “reduced”; the “levels of total cholesterol and neutral fat” value was “reduced”.

Take Bifidobacterium: the “Amount of produced Lactic acid” value with cellooligosaccharide is 1.01 mM and 1.08 mM.
